Values joined by “and” are separate entries in the source; they are usually repeats but may differ in a detail not shown here. Identical values can stand only once. “Also recorded” adds a separate entry of the source. Like-named read-outs stand apart in the source and are kept apart here.
Key:
[1] = tested on: MCF-7 cells; assay: Cell viability assay (MTT, DIC microscopy) at 20 μM; type: cell-based, human; parameters: key to Summary of cell viability activities (active/inactive): Y and N indicates active and inactive compounds respectively; Y and N indicates active and inactive compounds respectively; details: for Summary of cell viability activities (active/inactive): MCF-7 cells, 20 μM, 24-96 hrs, MTT; for effect on cell viability (in words): up to 96 hrs
Procedure: (A-F): MCF-7 cells were treated with 20 μM metallo-salens and incubated for varying time periods (24-96 hrs). Viable cells were quantified using MTT assay. The percent viable cells (relative to control, treated with equivalent amount of DMSO) were plotted as a function of time for each compound. This experiment was repeated twice with 8 replicate treatments each time. Bars indicates standard errors of mean (SEM). Curves 1-42 in FIGS. 2A-2F, represent the viability curves for compounds 1-42 respectively. (A′-F′) DIC images of the corresponding MCF-7 cells that were treated with DMSO (control panel), or with 20 μM Mn(III)- and Fe(III)-salen complexes for 72 hrs showing the visual effects on cellular morphology and growth/death.
Cell viability assay: Approximately 10,000 MCF-7 cells were seeded into each well of a 96 well micro titer plate and incubated 24 hrs in presence of 150 μL DMEM. An additional 50 μL DMEM containing required amount of each metallo-salen to obtain 20 μM final concentrations (in 200 μL final volume) in 8 replicate wells were added. Control wells were treated with equivalent amount of dimethylsulfoxide (DMSO). The viability of the cells was assayed at 24, 48, 72 and 96 hrs post treatment by using both microscopic observation and MTT assay. For microscopic observation cells were stained with trypan blue for at least 10 minute and observed under Differential Interference Contrast (DIC) setting of a fluorescence microscope (Nikon Eclipse TE2000-U, Japan). The MTT assay was performed as described previously^42. In brief, 20 μL MTT (5 mg/ml in PBS) was added into each wells and incubated for 2 hrs under normal growth condition to allow the viable cell to convert MTT to formazan. Then the media was discarded and formazan crystals were dissolved by adding 100 μL of DMSO and incubating 2 hrs with continuous shaking. The absorbance of the lysates were directly measured at 560 nm using a micro plate reader (Fluostar-omega, BMG Labtech). The absorbance values (which are proportional to the viable cell) are plotted as a function of time. The studies were repeated twice with 8 replicates each time.
The inventors studied the effect of Mn(III)-salen and Fe(III)-salen derivatives on the cell viability of cultured breast cancer cells MCF-7 in order to investigate the biochemical effects of the derivatives. The cells were incubated alone or with 20 μM of each of the metallo-salen derivatives separately (compounds 1-45) for varying time periods (0-96 hrs). The viable cells were quantified using MTT assay and the percent of cell survived (relative to the control untreated cells) were plotted against time (FIGS. 2A-2F).

[2] = tested on: MCF-7 cells; assay: Cytotoxicity assay (IC50 measurement, MTT); type: cell-based, human; details: MCF-7, 96 hrs
Procedure: Cytotoxicity assay (IC50 measurement): The cytotoxicity of Fe(III)-salen and its derivatives was determined by using MTT assay as described previously^42. In brief, approximately 10,000 MCF-7 cells were seeded into each well of a 96 well micro titer plate and incubated 24 hrs in presence of 150 μL DMEM. An additional 50 μL DMEM containing required amount of each metallo-salen to obtain 0.05 to 60 μM final concentration (in 200 μL final volume) in 8 replicate wells were added. Control wells were treated with equivalent amount of DMSO. After 96 hrs of incubation, 20 μL of MTT (5 mg/mL) was added into each well and cell viability was assayed by measuring the formazan absorption at 560 nm as described above. The absorbance (at 560 nm) values were plotted against concentration of metallo-salens to determine the IC50. The studies were repeated twice with 8 replicates each time.
The concentration of the metal-complexes at which the conversion of MTT to formazan by viable cells is reduced by 50% compared to control cells is defined as the IC50. The percent of cell survival relative to the control cells were plotted as a function of concentration of the metallo-salen derivatives.

[3] = read-out: IC50 toward MCF-7 cells
[4] = read-out: IC50 values for different complexes in MCF-7 cells

Molecule | Summary of cell viability activities (active/inactive) [1] | IC50 [2, 3] [µM] | effect on cell viability (in words) ([1]; MCF-7, 20 μM) | IC50 [2, 4] | cells killed in less than 24 hrs ([1]; MCF-7, 20 μM, less than 24 hrs)
[Cl-].[Fe+3].[O-]c1c(O)cccc1C=Nc1ccccc1N=Cc1cccc(O)c1[O-] [compound 30, 3,3′-Dihydroxysalphen Fe(III) chloride] | Y (30) | 0.33 | – | – | –
CC(=O)[O-].[Mn+3].[O-]c1ccccc1C=Nc1cc2ccccc2cc1N=Cc1ccccc1[O-] [compound 15, Mn(III)-salnaphen acetate] | Y (15) | – | most effective on inducing cell death | 15.5 µM and 15.6 µM | –
CC(=O)[O-].COc1ccc([O-])c(C=Nc2ccccc2N=Cc2cc(OC)ccc2[O-])c1.[Mn+3] [compound 14, 5,5′-Dimethoxysalphen Mn(III) acetate] | Y (14) | – | – | 55.9 µM | –
COc1ccc(C=Nc2ccccc2N=Cc2ccc(OC)cc2[O-])c([O-])c1.[Cl-].[Fe+3] [compound 34, 4,4′-Dimethoxysalphen Fe(III) chloride] | Y (34) | 0.68 | – | – | –
N.N.[Cl][Pt][Cl] [cis-platin, Cis-diaminodichloro-platinum(II), reference compound] | – | – | – | ~20 µM | –
CC(=O)[O-].[Mn+3].[O-]c1cc(O)ccc1C=Nc1ccccc1N=Cc1ccc(O)cc1[O-] [compound 10, 4,4′-Dihydroxysalphen Mn(III) acetate] | N (10) | – | not active | – | –
[Cl-].[Fe+3].[O-]c1cc(O)ccc1C=Nc1ccccc1N=Cc1ccc(O)cc1[O-] [compound 31, 4,4′-Dihydroxysalphen Fe(III) chloride] | N (31) | – | did not have any effects on cell viability | – | –
CC(=O)[O-].COc1cccc(C=Nc2cc3ccccc3cc2N=Cc2cccc(OC)c2[O-])c1[O-].[Mn+3] [compound 19, 3,3′-Dimethoxysalnaphen Mn(III) acetate] | Y (19) | – | – | 39.7 µM | –
CC(=O)[O-].COc1cccc(C=Nc2ccccc2N=Cc2cccc(OC)c2[O-])c1[O-].[Mn+3] [compound 12, 3,3′-Dimethoxysalphen Mn(III) acetate] | Y (12) | – | – | 22.2 µM | –
[Cl-].[Fe+3].[O-]c1ccccc1C=NCCCN=Cc1ccccc1[O-] [compound 43, Bis(salicylidene)propanediamine Fe(III) chloride] | – | – | almost no cell killing activity | – | –
COc1ccc(C=Nc2cc3ccccc3cc2N=Cc2ccc(OC)cc2[O-])c([O-])c1.[Cl-].[Fe+3] [compound 41, 4,4′-Dimethoxysalnaphen Fe(III) chloride] | Y (41) | 0.53 | – | – | –
CC(=O)[O-].[Mn+3].[O-]c1cc(O)ccc1C=NCCN=Cc1ccc(O)cc1[O-] [compound 3, 4,4′-Dihydroxysalen Mn(III) acetate] | N^b (3) | – | did not have any significant effect on cell viability; also recorded: not active | – | –
CC(=O)[O-].COc1ccc(C=Nc2ccccc2N=Cc2ccc(OC)cc2[O-])c([O-])c1.[Mn+3] [compound 13, 4,4′-Dimethoxysalphen Mn(III) acetate] | Y (13) | – | most effective on inducing cell death | 15.5 µM and 15.6 µM | –
[Cl-].[Fe+3].[O-]c1ccccc1C=NCCN=Cc1ccccc1[O-] [compound 22, Fe(III)-salen chloride] | Y (22) | – | highly effective in killing MCF-7 cells | 22.4 µM | –
COc1ccc([O-])c(C=NCCN=Cc2cc(OC)ccc2[O-])c1.[Cl-].[Fe+3] [compound 28, 5,5′-Dimethoxysalen Fe(III) chloride] | Y (28) | – | highly effective in killing MCF-7 cells | 4.56 µM | more than 80%
[Cl-].[Fe+3].[O-]c1cc(O)ccc1C=NCCN=Cc1ccc(O)cc1[O-] [compound 24, 4,4′-Dihydroxysalen Fe(III) chloride] | N (24) | – | – | – | –
CC(=O)[O-].[Mn+3].[O-]c1ccc(O)cc1C=NCCN=Cc1cc(O)ccc1[O-] [compound 4, 5,5′-Dihydroxysalen Mn(III) acetate] | Y (4) | – | effective in inducing cell death | 43.1 µM | –
COc1cccc(C=Nc2ccccc2N=Cc2cccc(OC)c2[O-])c1[O-].[Cl-].[Fe+3] [compound 33, 3,3′-Dimethoxysalphen Fe(III) chloride] | Y (33) | – | – | 4.15 µM | –
[Cl-].[Fe+3].[O-]c1ccc(O)cc1C=NCCN=Cc1cc(O)ccc1[O-] [compound 25, 5,5′-Dihydroxysalen Fe(III) chloride] | N (25) | – | – | – | –
[Cl-].[Fe+3].[O-]c1cc(O)ccc1C=Nc1cc2ccccc2cc1N=Cc1ccc(O)cc1[O-] [compound 38, 4,4′-Dihydroxysalnaphen Fe(III) chloride] | N (38) | – | did not have any effects on cell viability | – | –
CC(=O)[O-].[Mn+3].[O-]c1ccc(O)cc1C=Nc1cc2ccccc2cc1N=Cc1cc(O)ccc1[O-] [compound 18, 5,5′-Dihydroxysalnaphen Mn(III) acetate] | N (18) | – | inactive | – | –
CC(=O)[O-].[Mn+3].[O-]c1ccccc1C=Nc1ccccc1N=Cc1ccccc1[O-] [compound 8, Mn(III)-salphen acetate] | Y (8) | – | – | 15 µM | –
CC(=O)[O-].COc1ccc(C=Nc2cc3ccccc3cc2N=Cc2ccc(OC)cc2[O-])c([O-])c1.[Mn+3] [compound 20, 4,4′-Dimethoxysalnaphen Mn(III) acetate] | Y (20) | – | – | 20.4 µM and 20.5 µM | –
COc1cccc(C=NCCN=Cc2cccc(OC)c2[O-])c1[O-].[Cl-].[Fe+3] [compound 26, 3,3′-Dimethoxysalen Fe(III) chloride] | N (26) | – | did not show any significant effect on cell viability | – | –
[Cl-].[Fe+3].[O-]c1ccccc1C=NCCCCN=Cc1ccccc1[O-] [compound 44, Bis(salicylidene)butanediamine Fe(III) chloride] | – | – | almost no cell killing activity | – | –
[Cl-].[Fe+3].[O-]c1ccc(O)cc1C=Nc1ccccc1N=Cc1cc(O)ccc1[O-] [compound 32, 5,5′-Dihydroxysalphen Fe(III) chloride] | N (32) | – | did not have any effects on cell viability | – | –
[Cl-].[Fe+3].[O-]c1ccc(O)cc1C=Nc1cc2ccccc2cc1N=Cc1cc(O)ccc1[O-] [compound 39, 5,5′-Dihydroxysalnaphen Fe(III) chloride] | N (39) | – | did not have any effects on cell viability | – | –
[Cl-].[Fe+3].[O-]c1c(O)cccc1C=NCCN=Cc1cccc(O)c1[O-] [compound 23, 3,3′-Dihydroxysalen Fe(III) chloride] | N (23) | – | – | – | –
Fe(III)-carboxysalphen] chloride [compound 45] | – | – | almost no cell killing activity | – | –

Reference: patent US8198322B2, “Apoptotic and anti-tumor activities of metallo-salens” (Board of Regents, The University of Texas System, priority 2008, dated 2012)
